Results on one molecule are retold here after ChEMBL document CHEMBL5154827, “Discovery of S-217622, a Noncovalent Oral SARS-CoV-2 3CL Protease Inhibitor Clinical Candidate for Treating COVID-19” (J Med Chem, 2022).

Molecules are shown by their SMILES.

For assay [1], the system named is SARS-CoV-2. The assay can be described thus: In vivo antiviral activity against SARS CoV-2 gamma strain (hCoV-19/Japan/TY7-501/202) harbouring spike protein K417T mutant intranasally inoculated in BALB/c mouse assessed as reduction in lung intrapulmonary viral titer at 16 to 32 mg/kg, po immediately after viral infection and 12 hrs after viral infection measured after 24 hrs of post infection. It is filed as functional, Severe acute respiratory syndrome coronavirus 2. Particulars: dose 16-32 mg/kg.

The test system of assay [2] is SARS-CoV-2. The assay can be described thus: In vivo antiviral activity against SARS CoV-2 Gamma strain (hCoV-19/Japan/TY7-501/202) harbouring spike protein K417T mutant intranasally inoculated in BALB/c mouse assessed as reduction in lung intrapulmonary viral titer administered orally immediately after viral infection and 12 hrs after infection measured after 24 hrs of post infection. It counts as functional, organism-based. The following applies: Severe acute respiratory syndrome coronavirus 2, route po, DDE = dose-dependent effect.

As for `Cn1cnc(Cn2c(=O)[nH]/c(=N\c3cc4cn(C)nc4cc3Cl)n(Cc3cc(F)c(F)cc3F)c2=O)n1`, in the assay with SARS-CoV-2 [1], the TCID50 was found to be 1.8 log10/ml. Moreover, the Activity entry with SARS-CoV-2 [2] is “Dde”.
